Active and inactive are the calls of the source.
Columns and labels:
[1] = target: T1, DNA topoisomerase 1 (Homo sapiens) (UniProt P11387); assay: Inhibition of topoisomerase 1 (unknown origin) assessed as DNA relaxation using pBR322 DNA as substrate at < 20 uM by gel electrophoresis; conditions: dose microM <20
T1 sequence (whole entry): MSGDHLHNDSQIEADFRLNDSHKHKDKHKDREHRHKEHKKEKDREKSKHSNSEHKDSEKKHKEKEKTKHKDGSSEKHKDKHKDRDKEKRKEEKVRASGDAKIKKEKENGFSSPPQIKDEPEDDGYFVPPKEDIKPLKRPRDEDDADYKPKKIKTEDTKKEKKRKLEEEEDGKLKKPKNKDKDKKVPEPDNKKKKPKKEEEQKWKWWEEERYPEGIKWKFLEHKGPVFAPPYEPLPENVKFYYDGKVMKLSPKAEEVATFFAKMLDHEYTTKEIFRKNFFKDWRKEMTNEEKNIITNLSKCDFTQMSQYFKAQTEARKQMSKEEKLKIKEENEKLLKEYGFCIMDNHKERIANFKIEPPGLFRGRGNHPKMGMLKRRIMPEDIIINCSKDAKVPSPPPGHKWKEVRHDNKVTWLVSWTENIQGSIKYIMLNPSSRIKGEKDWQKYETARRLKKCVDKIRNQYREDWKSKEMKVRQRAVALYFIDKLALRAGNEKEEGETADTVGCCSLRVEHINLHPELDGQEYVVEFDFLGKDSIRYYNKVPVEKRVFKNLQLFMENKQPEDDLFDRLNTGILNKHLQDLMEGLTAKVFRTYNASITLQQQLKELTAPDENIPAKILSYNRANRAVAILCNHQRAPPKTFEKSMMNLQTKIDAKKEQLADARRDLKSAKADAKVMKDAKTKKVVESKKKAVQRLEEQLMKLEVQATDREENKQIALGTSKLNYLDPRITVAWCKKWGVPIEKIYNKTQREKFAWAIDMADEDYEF

[2] = target: T1, DNA topoisomerase 1 (Homo sapiens); assay: Inhibition of topoisomerase 1 (unknown origin) using pBR322 DNA as substrate at 10 uM by gel electrophoresis
[3] = system: DNA; assay: Induction of DNA damage in human MGC-803 cells assessed as increase in Cdc25A levels at 0.5 to 1 uM by Western blot analysis; type: cell-based; conditions: dose 0.5-1 µM
[4] = system: MGC-803; assay: Induction of apoptosis in human MGC-803 cells assessed as increase in PARP expression at 0.5 to 1 uM by Western blot analysis; type: functional, cell-based; conditions: dose 0.5-1 µM
[5] = system: MGC-803; assay: Effect on CDK2 expression in human MGC-803 cells at 0.5 to 1 uM by Western blot analysis; type: functional, cell-based; conditions: dose 0.5-1 µM
[6] = target: T1, DNA topoisomerase 1 (Homo sapiens); assay: Inhibition of topoisomerase 1 (unknown origin) using pBR322 DNA as substrate at 20 uM by gel electrophoresis

CN(C)CCN1C(=O)c2cccc3c(N4CCN(C(=O)c5ccccc5)CC4)c([N+](=O)[O-])cc(c23)C1=O
active: inhibition [1] | inhibition [2] | Activity [3] | Activity [4] | Activity [5]

Cc1ccc(S(=O)(=O)N2CCN(c3c([N+](=O)[O-])cc4c5c(cccc35)C(=O)N(CCN(C)C)C4=O)CC2)cc1
active: inhibition [1] | inhibition [6] | Activity [3] | Activity [4] | Activity [5]

Source: ChEMBL document CHEMBL4732079, “Design, synthesis and antitumor evaluation of new 1,8-naphthalimide derivatives targeting nuclear DNA” (Eur J Med Chem, 2021)
